# Measurements from patent US12473290B2, “Imidazopyridazine compounds useful as modulators of IL-12, IL-23 and/or IFN alpha responses” (BRISTOL-MYERS SQUIBB COMPANY, priority 2019, dated 2025).
# Experiments:
# [1] = Kit225 T Cell Assay, IL-23-stimulated STAT-dependent luciferase reporter; type: cell-based; settings: Kit225 T cells, 20 ng/mL human recombinant IL-23, 5-6 hours, luciferase expression
# Method: (§1) Kit225 T cells with a stably-integrated STAT-dependent luciferase reporter were plated in RPMI (Gibco) containing 10% heat-inactivated FBS (Gibco) and 100 U/mL PenStrep (Gibco). The cells were then stimulated with either 20 ng/mL human recombinant IL-23 or 200 U/mL human recombinant IFNα (PBL InterferonSource) for 5-6 hours. Luciferase expression was measured using the STEADY-GLO® Luciferase Assay System (Promega) according to the manufacturer's instructions. Inhibition data were calculated by comparison to no inhibitor control wells for 0% inhibition and non-stimulated control wells for 100% inhibition. Dose response curves were generated to determine the concentration required to inhibit 50% of cellular response (IC50) as derived by non-linear regression analysis.
# [2] = test system: IFNα Kit225 Reporter (Kit225 T cells with a stably-integrated STAT-dependent luciferase reporter, stimulated with IFNα); assay: Kit225 T Cell Assay, IFNα-stimulated STAT-dependent luciferase reporter; type: cell-based; settings: 200 U/mL human recombinant IFNα, 5-6 hours, luciferase expression
# Method: as §1
Compound,IC50 [1],IC50 [2]
"CC(C)(C)C(=O)Nc1cccc(Nc2cc(NCC3CC3)nn3c(C#N)cnc23)n1 [Example 26, N-[6-({3-cyano-6-[(cyclopropylmethyl)amino]imidazo[1,2-b]pyridazin-8-yl}amino)pyridin-2-yl]-2,2-dimethylpropanamide]",900 nM,200 nM
"N#Cc1cnc2c(Nc3cccc(NC(=O)C4CC4)n3)cc(NCC3CC3)nn12 [Example 27, N-[6-({3-cyano-6-[(cyclopropylmethyl)amino]imidazo[1,2-b]pyridazin-8-yl}amino)pyridin-2-yl]cyclopropanecarboxamide]",310 nM,160 nM
"CC(C)(C)CNc1cc(Nc2cccc(NC(=O)C3CC3)n2)c2ncc(C#N)n2n1 [Example 28, N-[6-({3-cyano-6-[(2,2-dimethylpropyl)amino]imidazo[1,2-b]pyridazin-8-yl}amino)pyridin-2-yl]cyclopropanecarboxamide]",260 nM,460 nM
"CN(C)c1nc(Nc2cc(N[C@@H]3CCCC[C@H]3O)nn3c(C#N)cnc23)ccc1C(=O)N1CCN(c2ccccc2F)CC1 [Example 30, 8-{[6-(dimethylamino)-5-[4-(2-fluorophenyl)piperazine-1-carbonyl]pyridin-2-yl]amino}-6-{[(1R,2R)-2-hydroxycyclohexyl]amino}imidazo[1,2-b]pyridazine-3-carbonitrile]",390 nM,730 nM
"CC(=O)N1[C@H](C)CN(c2cccc(Nc3cc(NC45CC6CC(CC(O)(C6)C4)C5)nn4c(C#N)cnc34)n2)C[C@@H]1C [Example 40, 8-({6-[(3R,5S)-4-acetyl-3,5-dimethylpiperazin-1-yl]pyridin-2-yl}amino)-6-[(3-hydroxyadamantan-1-yl)amino]imidazo[1,2-b]pyridazine-3-carbonitrile]",260 nM,390 nM
"C[C@@H](NC(=O)c1cccc(Nc2cc(NC34CC5CC(CC(O)(C5)C3)C4)nn3c(C#N)cnc23)n1)C(F)(F)F [Example 41, 6-({3-cyano-6-[(3-hydroxyadamantan-1-yl)amino]imidazo[1,2-b]pyridazin-8-yl}amino)-N-[(2R)-1,1,1-trifluoropropan-2-yl]pyridine-2-carboxamide]",110 nM,320 nM
"CC(C)(CC(N)=O)NC(=O)c1cccc(Nc2cc(NC34CC5CC(CC(O)(C5)C3)C4)nn3c(C#N)cnc23)n1 [Example 42, 3-{[6-({3-cyano-6-[(3-hydroxyadamantan-1-yl)amino]imidazo[1,2-b]pyridazin-8-yl}amino)pyridin-2-yl]formamido}-3-methylbutanamide]",710 nM,640 nM
"CN(C(=O)c1ccc(Nc2cc(NC3CCOCC3)nn3c(C#N)cnc23)nc1OCC(F)F)C1COC1 [Example 44, 6-({3-cyano-6-[(oxan-4-yl)amino]imidazo[1,2-b]pyridazin-8-yl}amino)-2-(2,2-difluoroethoxy)-N-methyl-N-(oxetan-3-yl)pyridine-3-carboxamide]",240 nM,860 nM
"N#Cc1cnc2c(Nc3ccc(C(=O)NCC4CCCO4)c(OCC(F)F)n3)cc(NC3CCOCC3)nn12 (stereo not drawn) [Example 45, 6-({3-cyano-6-[(oxan-4-yl)amino]imidazo[1,2-b]pyridazin-8-yl}amino)-2-(2,2-difluoroethoxy)-N-[(oxolan-2-yl)methyl]pyridine-3-carboxamide]",740 nM,260 nM
"N#Cc1cnc2c(Nc3ccc(C(=O)N4CC[C@@H](C#N)C4)c(OCC(F)F)n3)cc(NC3CCOCC3)nn12 [Example 47, (3R)-1-[6-({3-cyano-6-[(oxan-4-yl)amino]imidazo[1,2-b]pyridazin-8-yl}amino)-2-(2,2-difluoroethoxy)pyridine-3-carbonyl]pyrrolidine-3-carbonitrile]",340 nM,160 nM
"N#Cc1cnc2c(Nc3ccc(C(=O)N4CCCC4C(F)(F)F)c(OCC(F)F)n3)cc(NC3CCOCC3)nn12 (stereo not drawn) [Example 49, 8-{[6-(2,2-difluoroethoxy)-5-[2-(trifluoromethyl)pyrrolidine-1-carbonyl]pyridin-2-yl]amino}-6-[(oxan-4-yl)amino]imidazo[1,2-b]pyridazine-3-carbonitrile]",160 nM,220 nM
"CC(=O)NCc1ccc(-c2cccc(Nc3cc(NC4CCOCC4)nn4c(C#N)cnc34)n2)cc1 [Example 50, N-({4-[6-({3-cyano-6-[(oxan-4-yl)amino]imidazo[1,2-b]pyridazin-8-yl}amino)pyridin-2-yl]phenyl}methyl)acetamide]",1100 nM,760 nM

# Results, then the compound that gave them:
IC50 [1],IC50 [2],Compound
140 nM,380 nM,"CCNc1nc(Nc2cc(N[C@H]3CCCC[C@@H]3O)nn3c(C#N)cnc23)ccc1C(=O)N1CCCC1 [Example 29, 8-{[6-(ethylamino)-5-(pyrrolidine-1-carbonyl)pyridin-2-yl]amino}-6-{[(1S,2S)-2-hydroxycyclohexyl]amino}imidazo[1,2-b]pyridazine-3-carbonitrile]"
650 nM,870 nM,"CN(CCc1ccccn1)C(=O)c1ccc(Nc2cc(N[C@@H]3CCCC[C@H]3O)nn3c(C#N)cnc23)nc1N(C)C [Example 31, 6-[(3-cyano-6-{[(1R,2R)-2-hydroxycyclohexyl]amino}imidazo[1,2-b]pyridazin-8-yl)amino]-2-(dimethylamino)-N-methyl-N-[2-(pyridin-2-yl)ethyl]pyridine-3-carboxamide]"
670 nM,760 nM,"COCCNC(=O)c1ccc(Nc2cc(N[C@@H]3CCCC[C@H]3O)nn3c(C#N)cnc23)nc1N(C)C [Example 32, 6-[(3-cyano-6-{[(1R,2R)-2-hydroxycyclohexyl]amino}imidazo[1,2-b]pyridazin-8-yl)amino]-2-(dimethylamino)-N-(2-methoxyethyl)pyridine-3-carboxamide]"
670 nM,850 nM,"N#Cc1cnc2c(Nc3ccc(C(=O)N4CCCC4C(F)(F)F)c(OCC(F)F)n3)cc(N[C@@H]3CCCC[C@H]3O)nn12 (stereo partly drawn) [Example 33, 8-{[6-(2,2-difluoroethoxy)-5-[2-(trifluoromethyl)pyrrolidine-1-carbonyl]pyridin-2-yl]amino}-6-{[(1R,2R)-2-hydroxycyclohexyl]amino}imidazo[1,2-b]pyridazine-3-carbonitrile]"
430 nM,580 nM,"N#Cc1cnc2c(Nc3ccc(C(=O)N4C[C@H]5CC[C@@H]4C5)c(OCC(F)F)n3)cc(N[C@@H]3CCCC[C@H]3O)nn12 [Example 34, 8-({5-[(1R,4S)-2-azabicyclo[2.2.1]heptane-2-carbonyl]-6-(2,2-difluoroethoxy)pyridin-2-yl}amino)-6-{[(1R,2R)-2-hydroxycyclohexyl]amino}imidazo[1,2-b]pyridazine-3-carbonitrile]"
630 nM,610 nM,"N#Cc1cnc2c(Nc3ccc(C(=O)NCC4CCCO4)c(OCC(F)F)n3)cc(N[C@@H]3CCCC[C@H]3O)nn12 (stereo partly drawn) [Example 35, 6-[(3-cyano-6-{[(1R,2R)-2-hydroxycyclohexyl]amino}imidazo[1,2-b]pyridazin-8-yl)amino]-2-(2,2-difluoroethoxy)-N-[(oxolan-2-yl)methyl]pyridine-3-carboxamide]"
500 nM,760 nM,"C[C@@H]1COC[C@H](C)N1C(=O)c1ccc(Nc2cc(N[C@H]3CCCC[C@@H]3O)nn3c(C#N)cnc23)nc1OCC(F)F [Example 36, 8-{[6-(2,2-difluoroethoxy)-5-[(3R,5S)-3,5-dimethylmorpholine-4-carbonyl]pyridin-2-yl]amino}-6-{[(1S,2S)-2-hydroxycyclohexyl]amino}imidazo[1,2-b]pyridazine-3-carbonitrile]"
470 nM,550 nM,"CC(=O)NCc1ccc(-c2cccc(Nc3cc(N[C@@H]4CCCC[C@H]4O)nn4c(C#N)cnc34)n2)cc1 [Example 37, N-[(4-{6-[(3-cyano-6-{[(1R,2R)-2-hydroxycyclohexyl]amino}imidazo[1,2-b]pyridazin-8-yl)amino]pyridin-2-yl}phenyl)methyl]acetamide]"
890 nM,760 nM,"CS(=O)(=O)NCc1ccc(-c2cccc(Nc3cc(N[C@@H]4CCCC[C@H]4O)nn4c(C#N)cnc34)n2)cc1 [Example 38, N-[(4-{6-[(3-cyano-6-{[(1R,2R)-2-hydroxycyclohexyl]amino}imidazo[1,2-b]pyridazin-8-yl)amino]pyridin-2-yl}phenyl)methyl]methanesulfonamide]"
560 nM,790 nM,"N#Cc1cnc2c(Nc3cccc(N4CCN(S(=O)(=O)N5CCOCC5)CC4)n3)cc(N[C@@H]3CCCC[C@H]3O)nn12 [Example 39, 6-{[(1R,2R)-2-hydroxycyclohexyl]amino}-8-({6-[4-(morpholine-4-sulfonyl)piperazin-1-yl]pyridin-2-yl}amino)imidazo[1,2-b]pyridazine-3-carbonitrile]"
160 nM,450 nM,"CC(C)Oc1nc(Nc2cc(NC3CCOCC3)nn3c(C#N)cnc23)ccc1C(=O)N1CCCC1 [Example 43, 6-[(oxan-4-yl)amino]-8-{[6-(propan-2-yloxy)-5-(pyrrolidine-1-carbonyl)pyridin-2-yl]amino}imidazo[1,2-b]pyridazine-3-carbonitrile]"
740 nM,340 nM,"CN(C)C1CCN(C(=O)c2ccc(Nc3cc(NC4CCOCC4)nn4c(C#N)cnc34)nc2OCC(F)F)C1 (stereo not drawn) [Example 48, 8-{[6-(2,2-difluoroethoxy)-5-[3-(dimethylamino)pyrrolidine-1-carbonyl]pyridin-2-yl]amino}-6-[(oxan-4-yl)amino]imidazo[1,2-b]pyridazine-3-carbonitrile]"
